Test results reported in patent publication US4309340A, “Polypeptide compositions” (American Home Products Corporation, priority 1980, dated 1982).
Where a SMILES comes first, the peptide text is derived from it. Where no end group is shown, it is not given here. [ ]: non-standard residue; d: D form.

Legend:
[1] = test system: autologous rosette-forming cells in the spleens of athymic mice; conditions: in vivo; cited from earlier work
[2] = test system: T lymphocytes isolated from spleens of male CBA/J or NZB mice; experiment: T lymphocyte proliferation, 3H-thymidine incorporation; assay type: cell-based; set-up: key: A = Active; IA = Inactive; conditions: 48 hours culture, 200 μl
Protocol: The activity of the compounds of Example 2 and Example 4 was determined according to the following procedure:
T lymphocytes are isolated from spleens of male CBA/J or NZB mice. Cell homogenates are prepared in Hank's balanced salt solution (HBSS). After removal of larger particles and repeated washing of the cells in HBSS they are suspended in minimum essential medium (MEM) and passed through a glass wool column to remove macrophages. The cells are then incubated on a nylon wool column at 37° C., 95% air, 5% CO2, for 45 minutes. The non-adherant T lymphocytes are then eluted from the column, counted, and adjusted to 20×10^6 cells/ml. 50 μl of cells are cultured (37° C., 95% air, 5% CO2) with compound, for 48 hours before the addition of 0.5 μCi. of 3H-thymidine for the last 16 hours of culture. The total volume of the culture system is 200 μl. The cells are then harvested on a multiple automatic sample harvester (Mash II), the glass fiber filter disks placed in 10 ml. of xylene base scintillation fluid, and counted for 1 minute in a liquid scintillation counter. Results are reported as CPM±SE. Comparisons are made between counts obtained with control cultures and cultures containing compound and a determination made as to whether the compounds are active at the dosage tested.

Compound	Numbers of autologous rosette-forming cells in spleens of athymic mice [1]	Activity (T-cell proliferation, 3H-thymidine CPM vs control cultures) ([2]; 0.0015 μg/culture)	Activity (T-cell proliferation, 3H-thymidine CPM vs control cultures) ([2]; 0.006 μg/culture)	Activity (T-cell proliferation, 3H-thymidine CPM vs control cultures) ([2]; 0.025 μg/culture)	Activity (T-cell proliferation, 3H-thymidine CPM vs control cultures) ([2]; 0.1 μg/culture)	Activity (T-cell proliferation, 3H-thymidine CPM vs control cultures) ([2]; 0.05 μg/culture)	Activity (T-cell proliferation, 3H-thymidine CPM vs control cultures) ([2]; 0.2 μg/culture)
RKDVY [arginyl-lysyl-aspartyl-valyl-tyrosine]	reducing the high numbers of autologous rosette-forming cells						
CC(=O)O.CC(=O)O.CC(=O)O.CC(C)[C@H](NC(=O)[C@H](CC(N)=O)NC(=O)[C@H](CCCCN)NC(=O)[C@H](N)CCCNC(=N)N)C(=O)N[C@H](Cc1ccccc1)C(N)=O [D-Arg--Lys--Asn--Val--D-Phe--NH2, D-Arginyl-L-lysyl-L-asparaginyl-L-valyl-D-phenylalanyl amide tri acetate salt] (H-[dR]KNV[dF]-NH2)		A	A	A	A		
CC(=O)O.CC(=O)O.CC(=O)O.CC(C)[C@H](NC(=O)[C@H](CC(N)=O)NC(=O)[C@H](CCCCN)NC(=O)[C@@H](N)CCCNC(=N)N)C(=O)N[C@@H](Cc1ccc(O)cc1)C(N)=O [Arg--Lys--Asn--Val--Tyr--NH2, L-Arginyl-L-lysyl-L-asparaginyl-L-valyl-L-tyrosyl-amide triacetate salt] (H-RKNVY-NH2)		A	A	A	A	A	IA
